Experimental data as given in patent US8916586B2, “Anti-angiogenic compound” (University College Dublin—National University of Ireland, …, priority 2011, dated 2014).
“Also recorded” adds a separate entry of the source.

Key:
[1] = tested on: VEGF secreted from explant cultures of human colorectal cancers; test: VEGF secretion from human colorectal tumour explants (ELISA); assay type: cell-based; settings: 72 hours
Experimental: (§1) Human colorectal tumour samples were taken directly from the pathology laboratory after surgery once adequate material was taken for diagnostic testing. The tumour samples were washed and stored in DMSO/tumour conditioning media (TCM). The samples were snap-frozen in liquid nitrogen and stored at −80° C. until compound testing was performed. Prior to compound testing, the tumours were thawed and incubated in fresh TCM for 24 hours. […] The TCM solutions were collected and stored at −20° C. and the remaining tumour explants were snap-frozen in liquid nitrogen and stored at −80° C. The protein content of each tumour sample was determined using the BCA protein assay. ELISA was used to determine the levels of VEGF, IL-8, MCP-1, GRO-α, IL-1β and IL-6. The secretion data were normalised according to the tumour sample's protein content.

[2] = tested on: dermal-derived normal human microvascular endothelial cells (HMVEC-d); test: HMVEC-d cell migration (CIM-plate 16, xCELLigence); assay type: cell-based; settings: 100 nM (FIG. 13)
Experimental: (§2) HMVEC-d were purchased from Clonetics, San Diego, Calif., USA. Cells were maintained in complete Endothelial Cell Medium (Clonetics® EGM®-2-MV BulletKit®) containing 500 ml of Endothelial Cell Basal Medium-2 and supplemented with hEGF, 0.5 ml; Hydrocortisone, 0.2 ml; GA-1000, 0.5 ml; FBS, 25 ml; VEGF, 0.5 ml; hFGF-B, 2.0 ml; R3-IGF-1, 0.5 ml; Ascorbic Acid, 0.5 ml in a 37° C. humidified atmosphere of 5% CO2/95% air. HMVEC-d were used for experiments between passages 4-8.
Continuous monitoring of HMVEC-d cultures cell migration was recorded using a CIM-plate 16 (RTCA DP Analyser, xCELLigence System, Roche) with 5% serum serving as chemoattractant and following the manufacturer's protocol. Each well is composed of an upper chamber, a membrane with an interdigitated gold electrode on the underside of the microporous membrane (facing the lower chamber) and a lower chamber. Cells that have migrated to the lower chamber containing the chemoattractant attach to the gold electrodes and generate electrical impedance. Impedance readings are taken from an electronic sensor plate and reflect their attachment levels. […] The upper chamber was then clicked into position and 30 μl of serum-free media were added to cover the membrane surface. […] 5% CO2 humidified atmosphere and the Cell Index (CI) was recorded every 15 min. […]

[3] = tested on: hyaloid vasculature in zebrafish; test: Zebrafish developmental angiogenesis assay: number of primary branches of hyaloid vasculature on dissected lens; assay type: in vivo; settings: for dose-dependence of inhibition of hyaloid vasculature development: increasing concentrations between 1-10 μM, 5 dpf; for inhibition of intraocular angiogenesis (hyaloid vessels) in library screen: 5 day old larvae
Source text: We have used the zebrafish model as an in vivo screen for chemical libraries as the small size and transparency of the zebra fish enables high-content screens in multi-well plate formats (MacRae and Peterson, 2003; Pichler et al., 2003; Peterson et al., 2004; den Hertog, 2005; Zon and Peterson, 2005). […] To identify anti-angiogenic drugs we used a transgenic line of zebrafish that expresses a fluorescent reporter (EGFP) specifically in vasculature (Tg(fli1:efgp)). This line was obtained from the Zebrafish International Resource Center. Our assay involved screening the effect of drugs in the library on the development of blood vessels in zebrafish. Specifically, we looked at the integrity of vessels developing in the eye (hyaloid vessels attached to the lens) and in the trunk.
All experiments were carried out under ethical approval granted by the UCD animal research ethics committee. Tg(fli1:EGFP) zebrafish were maintained according to standard procedures on a 14 hr light/10 hr dark cycle at 28° C. Referring to the schematic of FIG. 1A, embryos were obtained by natural spawning and developmental stages established by time and morphological criteria. A chemical library containing numerous compounds was screened (FIG. 1A). In this specific example, the chemical library contained 5000 compounds of the DIVERSet™ collection from ChemBridge Corp., USA. At 24 hours post fertilisation (hpf), 5 embryos per well were placed in […] of Embryo Medium/1% DMSO and incubated with drug at 28° C. on a 14 h light/10 h dark cycle. Larvae were euthanised, and fixed in 4% PFA at 4° C. overnight before analysis. (FIG. 1A).
Right lenses were dissected from the larvae and transferred to depression slides for observation under epi-fluorescence in the Olympus SZX16 and to cover-slip bottom Petri-dishes for confocal microscopy in a Zeiss UV510 META LSM system (20× and 40× inverted objectives). To achieve appropriate orientation, lenses were embedded in 10% methyl-cellulose and manipulated with a tungsten needle (0.5 mm diameter). Patterning of the hyaloid vessels on the treated larval lenses was compared to DMSO controls and the archetypal pattern previously described (Alvarez et al., 2007; Alvarez et al., 2009). The number of primary vessels radiating from the back of the lens (3-4 main branches at 5 dpf in controls and previously described), was counted and the average number was graphed for each drug. From screens of ˜1600 small molecules, four “hits” that inhibited the number of primary hyaloids vessels were identified (FIG. 1B).
To validate the “hits” from the library screen, dose-dependence experiments were conducted by screening the drugs in the assay described in Example 2 above but at a range of increasing concentrations between 1-10 μM. Larvae were maintained under the drug treatments at 28° C. on 14 hr light/10 hr dark cycle until 5 days post fertilisation (dpf), when they were euthanised and fixed in 4% PFA at 4° C. overnight before analysis. The average number of primary hyaloids branches was graphed for each concentration of drug. […] One of the lead compounds identified by the screen of chemical library was 11B which has the chemical name 2-[2-2-quinolinyl)vinyl]phenol and its structure shown below: […]

[4] = tested on: dermal-derived normal human microvascular endothelial cells (HMVEC-d); test: In vitro HMVEC-d tube formation assay on Matrigel; assay type: cell-based; settings: 100 nM, 20 hr
Experimental: as §2
Matrigel (Becton Dickenson) basement membrane matrix was used to examine HMVEC-d tube formation. Matrigel (50 μl) was plated in 96 well culture plate wells after thawing on ice and allowed to polymerise at 37° C. 5% CO2 humidified atmosphere for 1 hr. HMVEC-d were removed from culture, trypsinised, and resuspended in full strength EGM growth medium. Cells were seeded at a density of 50×10^4 cells/cm^2 and incubated for 20 hr at 37° C. 5% CO2 humidified atmosphere. Endothelial cell tubule formation was assessed using phase contrast microscopy and photographed. A connecting branch between two discrete ECs was counted as one tube. The tube analysis was determined from 3 sequential fields (magnification×10) focusing on the surface of the matrigel.

[5] = tested on: IL-1β secreted from explant cultures of human colorectal cancers; test: IL-1β secretion from human colorectal tumour explants (ELISA); assay type: cell-based; settings: 72 hours; for level of IL-1β secreted by human tumour explants: 1 μM and 10 μM tested, concentration not given at place; for level of IL-1b secreted by human tumour explants: 10 μM
Experimental: as §1

[6] = 1 μM and 10 μM tested, concentration not given at place
[7] = 5 μM, treated day 1-5, analysed 5 dpf
[8] = 10 μM, treated day 1-5, analysed 5 dpf

Structure (SMILES)	level of VEGF secreted by human tumour explants [1, 6]	level of VEGF secreted by human tumour explants ([1]; 10 μM)	effect on HMVEC-d cell migration [2]	number of primary branches of hyaloid vasculature ([3]; 4 μM, analysed 5 dpf)	number of primary branches of hyaloid vasculature [3, 7]	number of primary branches of hyaloid vasculature ([3]; 7.5 μM, analysed 5 dpf)	anti-angiogenic effect compared with Avastin, number of primary hyaloid branches ([3]; 10 μM)	number of primary branches of hyaloid vasculature [3, 8]	dose-dependence of inhibition of hyaloid vasculature development [3]	inhibition of intraocular angiogenesis (hyaloid vessels) in library screen [3]	inhibition of HMVEC-d tubule formation [4]	level of IL-1β secreted by human tumour explants [5]	level of IL-1b secreted by human tumour explants [5]	level of VEGF secreted by human tumour explants ([1]; 1 μM)	reduction of tubule formation compared to control [4] [%]
Oc1ccccc1/C=C/c1ccc2ccccc2n1 [11B]	significantly reduced	significantly reduces	no significant effect; also recorded: neither 11B nor 11F had a significant effect; also recorded: neither 11B nor 11F had significant effects	significant inhibition	significant inhibition; also recorded: significant reduction	significant inhibition	more effective anti-angiogenic effect than Avastin	significant inhibition; also recorded: significant reduction	dose-dependent and statistically significant manner; also recorded: dose-dependent inhibition	inhibit intraocular angiogenesis	significantly inhibits	significantly reduced	significantly reduces		
COc1cc2c(C3CCCN3C)cnc(Cc3ccc4c(c3)OCO4)c2cc1OC (stereo not drawn) [11F, 1-(1,3-benzodioxol-5-ylmethyl)-6,7-dimethoxy-4-(1-methyl-2-pyrrolidinyl)isoquinoline]	significantly reduced	significantly reduced	no significant effect; also recorded: neither 11B nor 11F had a significant effect; also recorded: neither 11B nor 11F had significant effects		significant inhibition			significant inhibition	dose-dependent and statistically significant manner	inhibit intraocular angiogenesis		significantly reduced	significantly reduced	significantly reduced	9
